Each structure is given as a SMILES string. ≈ marks a conversion by molar mass, not a printed value. Entries after “also recorded” stand apart in the source; their conditions may differ. Where a name gives a salt, the structure may show the parent alone. Read-outs that look alike come from different tables or passages of the source. Where only a bound is given, the exact number is not on record here.

One data set relates to P388 leukemia cells. The data set can be described thus: cytotoxic assay with P388 leukemia cells. It counts as cell-based. Particulars: for IC50: Mus musculus. An excerpt:
The tubulin polymerization compounds can also be tested for their ability to inhibit tumor cell growth.

The test system of data set [1] is tubulin. The data set can be described thus: tubulin polymerization assay. It counts as biochemical, bovine. The method, then: The ability of the various above described compounds to inhibit tubulin polymerization can be determined by in vitro assay. A suitable assay system is that described by Bai et al A method for purifying tubulin from bovine brain cells is described by Hamel and Lin.
IC50 values for tubulin polymerization were determined according to the procedure described in Bai et al. Purified tubulin is obtained from bovine brain cells as described in Hamel and Lin. Various amounts of inhibitor were preincubated for 15 minutes at 37° C. with purified tubulin. After the incubation period, the reaction was cooled and GTP was added to induce tubulin polymerization. Polymerization was then monitored in a Gilford spectrophotometer at 350 nm. The final reaction mixtures (0.25 ml) contained 1.5 mg/ml tubulin, 0.6 mg/ml microtubule-associated proteins (MAPs), 0.5 mM GTP, 0.5 mM MgCl2, 4% DMSO and 0.1M 4-morpholineethanesulfonate buffer (MES, pH 6.4).

In data set [2] the test system is tubulin. Particulars: cited from earlier work.
In data set [3] the test system is tubulin. Particulars: cis or Z form vs trans or E; cited from earlier work.
For data set [4] the following is noted: treatment of Chagas' disease, cited from earlier work.
The next data set has as its system estrogen. Particulars: cited from earlier work.
For data set [5] the following is noted: relative to tamoxifen; cited from earlier work.
[6] abbreviates: P388, read-out: ED50 (effective dosage required to inhibit 50% of cell growth).

`COc1ccc(-c2sc3cc(OC)ccc3c2C(=O)c2c(OC)cccc2OC)cc1` [2,6-dimethoxybenzoyl, 3-(2', 6'-dimethoxybenzoyl)-2-(4'-methoxyphenyl)-6-methoxybenzo[b]thiophene]: the IC50 in the data set with P388 leukemia cells (read-out: ED50 (effective dosage required to inhibit 50% of cell growth), P388 leukemia cells) was above 100 µg/mL. In addition, the “activity against P388 leukemia cells” value in the data set on P388 leukemia cells (P388 leukemia cells) is on record as “failed to show measurable activity”. Also, the “inhibition of tubulin polymerization” value in the data set on tubulin [1] was “no observable tubulin polymerization inhibition activity; also recorded: failed to inhibit tubulin polymerization”.

With `COc1cc2c(cc1O)CC[C@@H]1[C@@H]2CC[C@]2(C)[C@@H](O)CC[C@@H]12` [2-methoxyestradiol], in the data set on tubulin [2], the “inhibition of tubulin polymerization” value was “viable inhibitor of tubulin polymerization”.

Take `COc1ccc(-c2sc3cc(OC)ccc3c2C(=O)c2cc(OC)c(O)c(OC)c2)cc1` [3,5-dimethoxy-4-hydroxybenzoyl]: the IC50 in the data set with P388 leukemia cells (setting [6]) was above 100 µg/mL. For the same molecule, in the data set with P388 leukemia cells (P388 leukemia cells), the “activity against P388 leukemia cells” value is on record as “failed to show measurable activity”. For the same molecule, in the data set with tubulin [1], the “inhibition of tubulin polymerization” value was “no observable tubulin polymerization inhibition activity; also recorded: failed to inhibit tubulin polymerization”.

Regarding `COc1ccc(-c2sc3cc(OC)ccc3c2C(=O)c2cc(OC)cc(OC)c2)cc1` [3,5-dimethoxybenzoyl, 3-(3',5'-dimethoxybenzoyl)-2-(4'-methoxyphenyl)-6-methoxybenzo[b]thiophene], the IC50 with P388 leukemia cells (setting [6]) was above 100 µg/mL. Moreover, the “activity against P388 leukemia cells” value in the data set on P388 leukemia cells (P388 leukemia cells) is on record as “failed to show measurable activity”. Further, the “inhibition of tubulin polymerization” value in the data set with tubulin [1] is listed as “no observable tubulin polymerization inhibition activity; also recorded: failed to inhibit tubulin polymerization”.

For the molecule `COc1ccc(/C=C\c2cc(OC)c(OC)c(OC)c2)cc1N(Cc1ccccc1)Cc1ccccc1` [5-[(Z)-2-(3',4',5'-trimethoxyphenyl)ethenyl]-2-methoxy-N,N-bis-(phenylmethyl)aniline, reference compound], the IC50 in the data set with P388 leukemia cells (setting [6]) worked out at 33.9 µg/mL (≈ 68.4 µM).

Turning to `COc1ccc(/C=C\c2cc(OC)c(OC)c(OC)c2)cc1O` [Combretastatin A-4], the “binding affinity for tubulin, cis (Z) form compared to trans (E) counterpart” value with tubulin [3] is listed as “much higher binding affinity for tubulin”.

For `O=C(Cn1ccnc1[N+](=O)[O-])NCc1ccccc1` [benznidazole], in data set [4], the “genotoxicity in children” value was “may also cause genotoxicity in children”; the “adverse effects” value is “thrombocytopenic purpura and polyneropathy”.

`CC1CS(=O)(=O)CCN1/N=C/c1ccc([N+](=O)[O-])o1` (stereo not drawn) [nifurtimox]: in data set [4], the “genotoxicity in children” value is “may also cause genotoxicity in children”; the “adverse effects” value was “thrombocytopenic purpura and polyneropathy”.

For `CC/C(=C(\c1ccccc1)c1ccc(OCCN(C)C)cc1)c1ccccc1` [tamoxifen], in the data set with estrogen, the “intrinsic estrogen agonist properties” value is recorded as “retain some intrinsic estrogen agonist properties”.

`COc1ccc(C2=C(C(=O)c3ccc(OCCN4CCCC4)cc3)c3ccccc3CC2)cc1` [trioxifene mesylate]: the “anti-tumor effects compared with tamoxifen” value in data set [5] is “anti-tumor effects at the same or higher level as tamoxifen”.

Source of the values: patent publication US5886025A, “Anti-mitotic agents which inhibit tubulin polymerization” (Baylor University, priority 1997, dated 1999).
